Data: patent publication US9458195B2, “Melanocortin receptor ligands” (Ipsen Pharma S.A.S., priority 2005, dated 2016)
Bridges are numbered along the chain shown (N, C = ends). [ ]: non-standard residue; d: D form. Pen = CC(C)(S)[C@H](N)C(=O)O; Nle = CCCC[C@H](N)C(=O)O; GABA = NCCCC(=O)O

Columns and labels:
hMC5-R [1] = target: T1, hMC5-R (Homo sapiens, UniProt P33032); test: cyclic AMP bioassay (ECL), CHO-K1 cells expressing hMC5-R; type: cell-based; details: Table 3B, cAMP
T1 construct: expressed in transfected cells; host or cells: CHO-K1 (membranes)
Experimental: (§4) Intracellular cyclic AMP (cAMP) levels were determined by an electrochemiluminescence (ECL) assay (Meso Scale Discovery®, Gaithersburg, Md.; referred to hereinafter as MSD). […] Transgenic CHO-K1 cells stably expressing hMC receptor subtypes 1, 3, 4 or 5 were dispensed at a density of approximately 7,000 cells/well in 384-well Multi-Array® plates (MSD) containing integrated carbon electrodes and coated with anti-cAMP antibody. Increasing concentrations of the test compounds were added and the cells were incubated for approximately 40 minutes at approximately 37° C. […] At the end of the second incubation period read buffer (Tris-buffered solution containing an ECL co-reactant and Triton X-100 at ph 7.8) was added and the cAMP levels in the cell lysates were immediately determined by ECL detection with a Sector Imager 6000 Reader® (MSD). Data were analyzed using a computer-assisted non-linear regression analysis (XL fit; IDBS) and reported as either an EC50 value or a Kb value.

hMC1-R [2] = target: T2, hMC1-R (Homo sapiens, UniProt Q01726); test: cyclic AMP bioassay (ECL), CHO-K1 cells expressing hMC1-R; type: cell-based; details: Table 3B, cAMP
T2 construct: expressed in transfected cells; host or cells: CHO-K1 (membranes)
Experimental: as §4

hMC1-R [3] = target: T2, hMC1-R; test: Radioligand binding assay, [125I]-NDP-α-MSH competition, hMC1-R; details: CHO-K1 cell membranes
Experimental: (§1) Radioligand Binding Assays
(§2) Cellular membranes used for the in vitro receptor binding assays were obtained from transgenic CHO-K1 cells stably expressing hMC-R receptor subtypes 1, 3, 4 or 5. […] The pellets were resuspended in the same buffer and centrifuged at 50,000 g for 10 minutes at approximately 4° C. The washed pellets containing the cellular membranes were stored at approximately −80° C.
(§3) Filters were washed three times with 50 mM Tris-HCl at pH 7.4 at a temperature of approximately 0-4° C. and then assayed for radioactivity using a Packard Topcount® scintillation counter. Binding data were analyzed by computer-assisted non-linear regression analysis (XL fit; IDBS).

hMC3-R [4] = target: T3, hMC3-R (Homo sapiens, UniProt P41968); test: cyclic AMP bioassay (ECL), CHO-K1 cells expressing hMC3-R; type: cell-based; details: Table 3B, cAMP
T3 construct: expressed in transfected cells; host or cells: CHO-K1 (membranes)
Experimental: as §4

hMC4-R [5] = target: T4, hMC4-R (Homo sapiens, UniProt P32245); test: cyclic AMP bioassay (ECL), CHO-K1 cells expressing hMC4-R; type: cell-based; details: Table 3B, cAMP
T4 construct: expressed in transfected cells; host or cells: CHO-K1 (membranes)
Experimental: as §4

hMC4-R [6] = target: T4, hMC4-R; test: Radioligand binding assay, [125I]-NDP-α-MSH competition, hMC4-R; details: CHO-K1 cell membranes
Experimental: as §1, §2, §3

hMC3-R [7] = target: T3, hMC3-R; test: Radioligand binding assay, [125I]-NDP-α-MSH competition, hMC3-R; details: CHO-K1 cell membranes
Experimental: as §1, §2, §3

hMC5-R [8] = target: T1, hMC5-R; test: Radioligand binding assay, [125I]-NDP-α-MSH competition, hMC5-R; details: CHO-K1 cell membranes
Experimental: as §1, §2, §3

T3 sequence (P41968 whole entry): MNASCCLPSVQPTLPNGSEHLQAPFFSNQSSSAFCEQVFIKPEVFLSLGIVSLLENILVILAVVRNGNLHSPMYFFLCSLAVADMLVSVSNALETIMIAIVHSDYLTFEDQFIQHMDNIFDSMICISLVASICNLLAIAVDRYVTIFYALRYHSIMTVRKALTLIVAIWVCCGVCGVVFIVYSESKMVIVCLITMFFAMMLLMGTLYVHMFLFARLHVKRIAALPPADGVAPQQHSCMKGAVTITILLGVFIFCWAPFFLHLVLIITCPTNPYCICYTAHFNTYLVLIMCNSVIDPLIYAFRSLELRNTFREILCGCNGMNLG
T2 sequence (Q01726 whole entry): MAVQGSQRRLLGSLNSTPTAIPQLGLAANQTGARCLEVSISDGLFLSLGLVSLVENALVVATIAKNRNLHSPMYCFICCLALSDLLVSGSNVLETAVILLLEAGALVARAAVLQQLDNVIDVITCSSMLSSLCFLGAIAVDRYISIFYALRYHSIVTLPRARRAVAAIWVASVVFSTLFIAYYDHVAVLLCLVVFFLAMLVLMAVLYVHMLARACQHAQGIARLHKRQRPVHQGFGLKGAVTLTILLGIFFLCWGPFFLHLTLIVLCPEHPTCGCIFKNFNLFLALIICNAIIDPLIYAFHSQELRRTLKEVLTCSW
T4 sequence (P32245 whole entry): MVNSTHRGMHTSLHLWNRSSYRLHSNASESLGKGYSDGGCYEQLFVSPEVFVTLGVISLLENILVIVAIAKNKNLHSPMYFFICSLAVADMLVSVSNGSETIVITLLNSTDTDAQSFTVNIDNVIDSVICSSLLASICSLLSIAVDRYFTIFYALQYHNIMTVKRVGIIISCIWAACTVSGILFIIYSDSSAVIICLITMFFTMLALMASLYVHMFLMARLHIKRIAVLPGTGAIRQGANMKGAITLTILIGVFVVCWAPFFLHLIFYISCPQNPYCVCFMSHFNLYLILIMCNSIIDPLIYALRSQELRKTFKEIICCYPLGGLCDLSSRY
T1 sequence (P33032 whole entry): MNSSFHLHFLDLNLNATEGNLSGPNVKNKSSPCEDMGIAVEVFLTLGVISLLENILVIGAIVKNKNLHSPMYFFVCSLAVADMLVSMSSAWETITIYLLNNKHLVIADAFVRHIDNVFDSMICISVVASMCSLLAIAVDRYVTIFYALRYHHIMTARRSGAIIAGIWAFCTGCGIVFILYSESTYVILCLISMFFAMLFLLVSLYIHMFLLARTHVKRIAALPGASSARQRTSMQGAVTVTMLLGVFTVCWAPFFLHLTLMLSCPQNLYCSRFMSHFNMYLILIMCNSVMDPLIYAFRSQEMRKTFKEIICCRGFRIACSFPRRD

EC50 (hMC5-R [1]): 3.9 nM | EC50 (hMC1-R [2]): 0.28 nM | Ki (hMC1-R [3]): 0.12 nM | EC50 (hMC3-R [4]): 0.24 nM | EC50 (hMC4-R [5]): 0.028 nM | Ki (hMC4-R [6]): 0.43 nM | Ki (hMC3-R [7]): 10 nM | Ki (hMC5-R [8]): 0.42 nM
Substance: Ac-[Nle]CH[dF]RW[GABA][Pen]-NH2 (disulfide 2-8)
